Reference: PMC5361737, “Potent and Selective KDM5 Inhibitor Stops Cellular Demethylation of H3K4me3 at Transcription Start Sites and Proliferation of MM1S Myeloma Cells” (Cell Chemical Biology, 2017)

Legend:
H3K4me3 in MM1S cells = assay: Quantitative ChIP-seq (ChIP-Rx spike-in) of H3K4me3; format: cell-based, human; conditions: 50 μM, 7 days, spike-in quantification
Procedure: Immediately prior to fixation in 1% formaldehyde, three million sf9 cells were added to each sample. Cells were fixed for 8 min at room temperature, lysed, and sonicated on a Bioruptor Pico for 3 repeats of 10 cycles of 30 s on/30 s off. The sonicated lysates were incubated for 1 hr at 4°C with pre-blocked protein A Sepharose beads, prior to overnight incubation with 1 μg of anti-H3K4me3 antibody (Millipore cat no. 07–473 lot no. 2207281). Pre-blocked Sepharose beads were added for 1 hr, the beads washed, and DNA was eluted followed by Proteinase K digestion. Libraries were constructed using the NebNext Ultra DAN Kit (NEB) and sequenced on an Illumina NextSeq 500 platform. Libraries were also generated for the input of each condition and sequenced in a similar manner.
Sequencing reads were aligned to the concatenated human/sf9 genome generated earlier using Bowtie (version 1.1.2), allowing only reads that matched uniquely to one location. The number of reads mapping to the human and sf9 genomes separately in each condition was calculated. The number of sf9 reads-per-million total aligned reads was calculated for each pull-down condition and corrected according to the percentage of sf9 reads in the corresponding input samples. A scaling factor for normalization was then calculated for each pull-down based on the reciprocal of the corrected sf9 reads per million for each sample. […]

AT1 (h) = AT1 (h) (Homo sapiens, UniProt P30556); assay: Cerep Express Panel, antagonist radioligand; format: binding; conditions: read-out: % Inhibition of reference (10 µM)
5-HT3 (h) = 5-HT3 (h) (Homo sapiens, UniProt P46098); assay: Cerep Express Panel, antagonist radioligand; format: binding; conditions: read-out: % Inhibition of reference (10 µM)
Y2 (h) = Y2 (h) (Homo sapiens, UniProt P49146); assay: Cerep Express Panel, agonist radioligand; format: binding; conditions: read-out: % Inhibition of reference (10 µM)
[1] = Liver microsomes stability; format: in vitro ADME; conditions: human liver microsomes
M1 (h) = M1 (h) (Homo sapiens, UniProt P11229); assay: Cerep Express Panel, antagonist radioligand; format: binding; conditions: read-out: % Inhibition of reference (10 µM)
CB1 (h) = CB1 (h) (Homo sapiens, UniProt P21554); assay: Cerep Express Panel, agonist radioligand; format: binding; conditions: read-out: % Inhibition of reference (10 µM)
V1a (h) = V1a (h) (Homo sapiens, UniProt P37288); assay: Cerep Express Panel, agonist radioligand; format: binding; conditions: read-out: % Inhibition of reference (10 µM)
A2A (h) = A2A (h) (Homo sapiens, UniProt P29274); assay: Cerep Express Panel, agonist radioligand; format: binding; conditions: read-out: % Inhibition of reference (10 µM)
NK3 (h) = NK3 (h) (Homo sapiens, UniProt P29371); assay: Cerep Express Panel, antagonist radioligand; format: binding; conditions: read-out: % Inhibition of reference (10 µM)
5-HT6 (h) = 5-HT6 (h) (Homo sapiens, UniProt P50406); assay: Cerep Express Panel, agonist radioligand; format: binding; conditions: read-out: % Inhibition of reference (10 µM)
[2] = target: T1, norepinephrine transporter (h) (Homo sapiens, UniProt P23975); assay: Cerep Express Panel, antagonist radioligand; format: binding; conditions: read-out: % Inhibition of reference (10 µM)
T1 construct: CEREP

M2 (h) = M2 (h) (Homo sapiens, UniProt P08172); assay: Cerep Express Panel, antagonist radioligand; format: binding; conditions: read-out: % Inhibition of reference (10 µM)
Cl- channel (GABA-gated) = assay: Cerep Express Panel, antagonist radioligand; format: binding
MC4 (h) = MC4 (h) (Homo sapiens, UniProt P32245); assay: Cerep Express Panel, agonist radioligand; format: binding; conditions: read-out: % Inhibition of reference (10 µM)
VPAC1 (VIP1) (h) = VPAC1 (VIP1) (h) (Homo sapiens, UniProt P32241); assay: Cerep Express Panel, agonist radioligand; format: binding; conditions: read-out: % Inhibition of reference (10 µM)
H1 (h) = H1 (h) (Homo sapiens, UniProt P35367); assay: Cerep Express Panel, antagonist radioligand; format: binding; conditions: read-out: % Inhibition of reference (10 µM)
Y1 (h) = Y1 (h) (Homo sapiens, UniProt P25929); assay: Cerep Express Panel, agonist radioligand; format: binding; conditions: read-out: % Inhibition of reference (10 µM)
beta 1 (h) = beta 1 (h) (Homo sapiens, UniProt P08588); assay: Cerep Express Panel, agonist radioligand; format: binding; conditions: read-out: % Inhibition of reference (10 µM)
[3] = system: MM1S multiple myeloma cells; assay: Fluorescent cell-viability assay (PrestoBlue); format: cell-based, human
Procedure: MM1S myeloma cells were cultured in RMPI with 10% heat-inactivated FCS and 2 mM glutamine under standard conditions. […] Viability was measured using PrestoBlue reagent and normalized to a vehicle control. Data were plotted and IC50 values were calculated in Prism (v5.1).

NK2 (h) = NK2 (h) (Homo sapiens, UniProt P21452); assay: Cerep Express Panel, agonist radioligand; format: binding; conditions: read-out: % Inhibition of reference (10 µM)
CXCR2 (IL-8B) (h) = target: T2, CXCR2 (IL-8B) (h) (Homo sapiens, UniProt P25025); assay: Cerep Express Panel, agonist radioligand; format: binding; conditions: read-out: % Inhibition of reference (10 µM)
T2 sequence (P25025 1-360): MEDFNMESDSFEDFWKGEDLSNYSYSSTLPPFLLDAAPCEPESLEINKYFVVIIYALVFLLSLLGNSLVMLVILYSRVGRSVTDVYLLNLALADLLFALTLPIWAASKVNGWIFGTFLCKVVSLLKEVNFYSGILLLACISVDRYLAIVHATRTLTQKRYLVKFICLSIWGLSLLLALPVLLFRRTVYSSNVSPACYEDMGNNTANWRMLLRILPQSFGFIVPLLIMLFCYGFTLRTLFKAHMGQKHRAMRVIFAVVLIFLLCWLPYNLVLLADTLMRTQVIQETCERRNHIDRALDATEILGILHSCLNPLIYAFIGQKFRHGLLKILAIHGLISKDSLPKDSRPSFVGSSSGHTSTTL

EP4 (h) = EP4 (h) (Homo sapiens, UniProt P35408); assay: Cerep Express Panel, agonist radioligand; format: binding; conditions: read-out: % Inhibition of reference (10 µM)
NO66 = NO66 (Homo sapiens, UniProt Q9H6W3); assay: 2-Oxoglutarate oxygenase assay panel, RapidFire MS assay; format: biochemical; conditions: read-out: pIC50 NO66 (converted)
MT1 (ML1A) (h) = MT1 (ML1A) (h) (Homo sapiens, UniProt P48039); assay: Cerep Express Panel, agonist radioligand; format: binding; conditions: read-out: % Inhibition of reference (10 µM)
KDM3A = KDM3A (Homo sapiens, UniProt Q9Y4C1); assay: 2-Oxoglutarate oxygenase assay panel, AlphaScreen assay

Chain of CB1 (h) (P21554 whole entry): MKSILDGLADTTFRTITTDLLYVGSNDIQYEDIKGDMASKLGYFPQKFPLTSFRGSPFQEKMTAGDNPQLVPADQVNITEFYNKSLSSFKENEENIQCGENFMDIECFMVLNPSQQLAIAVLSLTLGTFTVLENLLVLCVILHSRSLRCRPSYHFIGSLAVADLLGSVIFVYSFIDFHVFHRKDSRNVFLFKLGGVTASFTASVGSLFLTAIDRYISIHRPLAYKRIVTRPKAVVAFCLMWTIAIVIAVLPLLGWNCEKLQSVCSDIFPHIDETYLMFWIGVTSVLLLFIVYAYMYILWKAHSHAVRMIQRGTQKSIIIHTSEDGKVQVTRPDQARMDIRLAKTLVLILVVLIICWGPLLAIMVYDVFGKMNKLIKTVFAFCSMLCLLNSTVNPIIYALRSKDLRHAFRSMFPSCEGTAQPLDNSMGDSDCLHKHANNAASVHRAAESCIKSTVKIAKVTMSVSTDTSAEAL
T1 sequence (P23975 whole entry): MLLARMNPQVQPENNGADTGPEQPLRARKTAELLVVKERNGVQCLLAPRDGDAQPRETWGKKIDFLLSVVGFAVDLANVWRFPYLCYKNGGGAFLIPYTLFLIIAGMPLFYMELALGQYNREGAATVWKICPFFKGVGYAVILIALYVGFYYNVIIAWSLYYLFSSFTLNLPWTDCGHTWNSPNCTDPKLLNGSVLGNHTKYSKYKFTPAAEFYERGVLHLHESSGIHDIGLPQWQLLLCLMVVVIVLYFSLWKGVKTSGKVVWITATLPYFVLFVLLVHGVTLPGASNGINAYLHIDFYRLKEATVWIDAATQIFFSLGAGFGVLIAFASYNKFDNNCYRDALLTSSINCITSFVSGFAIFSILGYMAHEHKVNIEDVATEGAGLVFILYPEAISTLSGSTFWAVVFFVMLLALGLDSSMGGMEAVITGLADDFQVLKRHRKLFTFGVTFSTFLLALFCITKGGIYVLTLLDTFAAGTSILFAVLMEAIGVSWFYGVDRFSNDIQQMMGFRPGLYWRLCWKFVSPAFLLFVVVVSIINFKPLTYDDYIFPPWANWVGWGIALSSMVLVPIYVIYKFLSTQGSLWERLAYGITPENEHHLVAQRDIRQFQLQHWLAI
Chain of NK3 (h) (P29371 whole entry): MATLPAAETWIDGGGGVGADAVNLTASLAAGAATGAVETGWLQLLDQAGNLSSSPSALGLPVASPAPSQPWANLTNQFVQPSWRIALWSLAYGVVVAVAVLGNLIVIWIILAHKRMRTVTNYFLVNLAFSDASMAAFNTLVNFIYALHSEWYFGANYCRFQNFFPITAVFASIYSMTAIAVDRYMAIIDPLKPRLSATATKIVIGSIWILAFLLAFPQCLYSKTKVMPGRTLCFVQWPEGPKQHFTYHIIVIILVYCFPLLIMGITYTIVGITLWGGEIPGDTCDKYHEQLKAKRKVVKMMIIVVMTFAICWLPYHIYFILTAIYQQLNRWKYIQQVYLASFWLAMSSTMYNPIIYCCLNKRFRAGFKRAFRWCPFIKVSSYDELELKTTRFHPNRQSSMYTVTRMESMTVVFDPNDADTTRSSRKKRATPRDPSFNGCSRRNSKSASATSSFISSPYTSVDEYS
Chain of V1a (h) (P37288 whole entry): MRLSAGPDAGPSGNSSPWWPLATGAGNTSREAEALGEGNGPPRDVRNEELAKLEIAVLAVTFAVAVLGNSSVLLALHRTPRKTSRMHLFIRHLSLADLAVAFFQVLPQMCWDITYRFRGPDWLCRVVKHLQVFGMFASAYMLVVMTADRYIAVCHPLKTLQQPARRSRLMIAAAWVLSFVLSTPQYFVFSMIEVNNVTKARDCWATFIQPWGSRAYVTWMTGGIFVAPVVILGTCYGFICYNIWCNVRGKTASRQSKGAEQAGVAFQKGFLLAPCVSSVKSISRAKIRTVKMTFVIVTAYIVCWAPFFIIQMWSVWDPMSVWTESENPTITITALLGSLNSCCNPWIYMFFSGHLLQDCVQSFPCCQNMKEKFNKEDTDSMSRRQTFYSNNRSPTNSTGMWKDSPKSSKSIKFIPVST
Chain of H1 (h) (P35367 whole entry): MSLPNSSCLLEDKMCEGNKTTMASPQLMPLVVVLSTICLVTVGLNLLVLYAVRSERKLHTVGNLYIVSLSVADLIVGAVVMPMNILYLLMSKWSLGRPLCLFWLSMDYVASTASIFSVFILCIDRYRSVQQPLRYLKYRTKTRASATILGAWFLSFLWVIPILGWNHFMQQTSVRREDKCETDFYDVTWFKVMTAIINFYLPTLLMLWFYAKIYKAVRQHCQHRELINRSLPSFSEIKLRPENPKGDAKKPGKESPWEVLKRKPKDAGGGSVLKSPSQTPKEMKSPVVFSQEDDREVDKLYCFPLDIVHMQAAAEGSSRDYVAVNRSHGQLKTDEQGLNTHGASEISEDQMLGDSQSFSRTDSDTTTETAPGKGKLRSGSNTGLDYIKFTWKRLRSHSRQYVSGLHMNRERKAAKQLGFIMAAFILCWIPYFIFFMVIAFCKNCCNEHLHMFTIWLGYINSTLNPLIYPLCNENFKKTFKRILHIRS
Chain of AT1 (h) (P30556 whole entry): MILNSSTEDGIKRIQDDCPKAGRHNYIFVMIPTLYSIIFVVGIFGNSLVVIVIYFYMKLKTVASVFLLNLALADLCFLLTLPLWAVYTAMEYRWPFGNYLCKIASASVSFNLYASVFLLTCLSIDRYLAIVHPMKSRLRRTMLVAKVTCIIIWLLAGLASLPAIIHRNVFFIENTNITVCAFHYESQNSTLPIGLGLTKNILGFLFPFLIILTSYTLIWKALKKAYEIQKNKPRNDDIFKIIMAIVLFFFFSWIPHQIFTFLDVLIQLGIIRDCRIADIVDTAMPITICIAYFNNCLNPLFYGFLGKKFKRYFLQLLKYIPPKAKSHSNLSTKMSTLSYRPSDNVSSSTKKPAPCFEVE
Chain of MC4 (h) (P32245 whole entry): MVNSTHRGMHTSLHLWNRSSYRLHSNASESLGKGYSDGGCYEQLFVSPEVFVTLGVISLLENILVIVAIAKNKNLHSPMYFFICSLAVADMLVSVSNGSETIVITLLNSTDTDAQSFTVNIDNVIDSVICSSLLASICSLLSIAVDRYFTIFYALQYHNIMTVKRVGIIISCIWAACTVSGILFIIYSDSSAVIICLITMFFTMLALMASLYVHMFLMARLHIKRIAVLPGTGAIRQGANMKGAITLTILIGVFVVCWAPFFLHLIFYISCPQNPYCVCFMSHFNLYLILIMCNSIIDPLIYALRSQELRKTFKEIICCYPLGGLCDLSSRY
Chain of MT1 (ML1A) (h) (P48039 whole entry): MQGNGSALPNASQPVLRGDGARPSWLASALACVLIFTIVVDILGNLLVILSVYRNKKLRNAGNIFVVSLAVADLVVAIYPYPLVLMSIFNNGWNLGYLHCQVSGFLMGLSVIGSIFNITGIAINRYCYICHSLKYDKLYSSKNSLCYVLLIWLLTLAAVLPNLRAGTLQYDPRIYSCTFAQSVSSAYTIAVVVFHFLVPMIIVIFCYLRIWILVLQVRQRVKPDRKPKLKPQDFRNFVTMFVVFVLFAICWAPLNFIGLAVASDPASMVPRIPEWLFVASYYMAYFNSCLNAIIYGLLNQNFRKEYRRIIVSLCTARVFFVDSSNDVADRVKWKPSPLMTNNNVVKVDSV
Chain of NO66 (Q9H6W3 whole entry, species assumed): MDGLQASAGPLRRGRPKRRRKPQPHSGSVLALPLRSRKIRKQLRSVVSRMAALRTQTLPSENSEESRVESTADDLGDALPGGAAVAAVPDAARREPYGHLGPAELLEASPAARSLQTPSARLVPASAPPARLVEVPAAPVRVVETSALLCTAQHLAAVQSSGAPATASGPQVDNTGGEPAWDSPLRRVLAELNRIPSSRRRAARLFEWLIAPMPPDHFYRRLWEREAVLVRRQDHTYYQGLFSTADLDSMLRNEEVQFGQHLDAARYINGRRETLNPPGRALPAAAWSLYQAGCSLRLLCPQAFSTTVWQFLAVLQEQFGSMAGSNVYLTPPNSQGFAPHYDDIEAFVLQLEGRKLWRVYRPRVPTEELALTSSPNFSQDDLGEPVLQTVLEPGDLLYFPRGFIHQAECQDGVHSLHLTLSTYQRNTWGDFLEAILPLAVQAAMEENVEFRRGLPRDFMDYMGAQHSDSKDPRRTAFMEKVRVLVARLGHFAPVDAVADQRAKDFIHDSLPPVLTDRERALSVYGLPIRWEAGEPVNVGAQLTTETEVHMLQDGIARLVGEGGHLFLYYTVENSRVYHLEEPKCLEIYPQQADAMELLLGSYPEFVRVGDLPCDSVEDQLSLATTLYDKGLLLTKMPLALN
Chain of VPAC1 (VIP1) (h) (P32241 31-457): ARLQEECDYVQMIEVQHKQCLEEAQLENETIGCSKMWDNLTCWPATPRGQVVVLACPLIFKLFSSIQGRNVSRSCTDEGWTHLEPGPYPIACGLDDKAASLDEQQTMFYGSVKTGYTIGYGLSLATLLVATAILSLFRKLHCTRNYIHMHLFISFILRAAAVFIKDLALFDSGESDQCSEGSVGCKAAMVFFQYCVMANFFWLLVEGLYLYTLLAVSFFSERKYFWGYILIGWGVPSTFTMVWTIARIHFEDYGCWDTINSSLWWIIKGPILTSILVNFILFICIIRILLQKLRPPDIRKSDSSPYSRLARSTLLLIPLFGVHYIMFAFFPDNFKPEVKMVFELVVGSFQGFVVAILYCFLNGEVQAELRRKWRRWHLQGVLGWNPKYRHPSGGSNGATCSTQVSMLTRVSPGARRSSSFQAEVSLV
Chain of Y1 (h) (P25929 whole entry): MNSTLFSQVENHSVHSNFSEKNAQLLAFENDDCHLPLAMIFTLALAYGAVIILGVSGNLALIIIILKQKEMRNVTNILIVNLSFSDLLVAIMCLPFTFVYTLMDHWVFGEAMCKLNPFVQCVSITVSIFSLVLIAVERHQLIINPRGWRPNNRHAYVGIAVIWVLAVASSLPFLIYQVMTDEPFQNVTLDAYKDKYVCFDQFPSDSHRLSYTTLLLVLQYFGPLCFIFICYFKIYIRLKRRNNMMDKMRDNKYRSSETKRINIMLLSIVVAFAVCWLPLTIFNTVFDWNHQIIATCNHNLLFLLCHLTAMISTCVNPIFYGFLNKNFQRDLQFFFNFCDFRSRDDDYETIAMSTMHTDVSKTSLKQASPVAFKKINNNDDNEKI

## CCN(CCN(C)C)C(=O)CNCc1cc(C(N)=O)ccn1 [KDOAM-25]
H3K4me3 in MM1S cells
  H3K4me3 level compared with the vehicle control: approximately twice
AT1 (h)
  inhibition at 10 µM: -7%
5-HT3 (h)
  inhibition at 10 µM: 8%
Y2 (h)
  inhibition at 10 µM: -1%
[1]
  intrinsic clearance, in words: low intrinsic clearance
[1]; read-out: HLM Clint
  microsomal CLint: 11.9 µL/min/mg
M1 (h)
  inhibition at 10 µM: -18%
CB1 (h)
  inhibition at 10 µM: -1%
V1a (h)
  inhibition at 10 µM: -4%
A2A (h)
  inhibition at 10 µM: -2%
NK3 (h)
  inhibition at 10 µM: -8%
5-HT6 (h)
  inhibition at 10 µM: -3%
[2]
  inhibition at 10 µM: -6%
M2 (h)
  inhibition at 10 µM: -3%
Cl- channel (GABA-gated)
  % Inhibition of reference (10 µM): -2%
MC4 (h)
  inhibition at 10 µM: 5%
VPAC1 (VIP1) (h)
  inhibition at 10 µM: -12%
H1 (h)
  inhibition at 10 µM: 1%
Y1 (h)
  inhibition at 10 µM: -7%
Beta 1 (h)
  inhibition at 10 µM: 5%
[3]; Homo sapiens, MM1.S, after a delay of 5–7 days
  IC50: ~30 µM
[3]; MM1S, after 3 days
  effect on cell viability, in words: little effect on cell viability
NK2 (h)
  inhibition at 10 µM: 3%
CXCR2 (IL-8B) (h)
  inhibition at 10 µM: 5%
EP4 (h)
  inhibition at 10 µM: -15%
NO66
  IC50: > 100 µM
MT1 (ML1A) (h)
  inhibition at 10 µM: 5%
KDM3A
  IC50: 31.6 µM
